From article PMC8424300, “Identification of novel microtubule inhibitors effective in fission yeast and human cells and their effects on breast cancer cell lines” (Open Biology, 2021)

Columns and labels:
MCF-10A = experiment: Viability dose-response in non-cancer mammary cell line; type: cell-based, human
Description: (§1) The sensitivity of the inhibitors L1, J3, A15 and M2 were evaluated in three breast cancer cell lines, (BT549, CAL51 and MB-157) and a non-cancer cell line from the human mammary gland, MCF-10A (figure 8). Drug sensitivity was determined by culturing breast cancer cell lines (black lines) and the non-cancer cell line (red line) with a range of concentrations of each compound, and viability was measured after 4 days of treatment in triplicate.
(§2) Figure 8. Dose–response curves in three cancer cell lines (BT549, CAL51 and MB-157) are shown in black and non-cancer cell line; MCF-10A is shown in red. They were subjected to a dose–response matrix of the tubulin inhibitor, L1, A15, M2 and J3, respectively. Viability relative to the vehicle control was measured […] after treatment. Mean ± s.e.m. for n = 3 experiments is shown.
(§3) Cells were plated in 384-well plates at a density of 800 cells per well in 22.5 µl of media. After 24 h, 2.5 µl drug was diluted in media and was added to each well. Following 5 days of incubation, viability was assessed using CellTiter-Glo (Promega) according to the manufacture's protocol. Luminescence in each well was measured using a Synergy Neo2 plate reader (BioTek).

HeLa cells = experiment: Time-lapse live imaging of mitotic progression and cell fate in HeLa cells (H2B-mCherry, EGFP-α-tubulin); type: cell-based, human
Description: To determine whether these 34 compounds also induce mitotic abnormalities in human cells, a second screen of these compounds was conducted using HeLa cells. We used time-lapse microscopy to monitor mitotic progression in HeLa cells expressing mCherry-tagged histone H2B to mark chromatin, and EGFP-tagged α-tubulin to monitor microtubules over a 24 h time period in the presence of 2 µM of each of the 34 compounds. The duration of mitosis was determined by live-cell imaging, defined as the period from prophase to cytokinesis based on chromatin and microtubule morphologies (figure 2a). The control DMSO-treated cells progressed through mitosis with a mean mitotic duration of 77 ± 6 min. Among the 34 compounds we tested, nine caused a significant increase in mitotic duration in human cells (figure 2a), ranging from 122 ± 42 min (F15) to 720 ± 53 min (C16). […] As described in the Discussion, we have not carried out a detailed analysis for B8 in this study. To determine whether these cell deaths were caused by apoptosis, caspase activity was assayed for 24 h using time-lapse microscopy in the presence of the 12 compounds. Caspase 3 and Caspase 7 activities were observed 12–24 h after the addition of the compounds (electronic supplementary material, figure S1A). There were also other indications of apoptosis including the morphological chances reminiscing of membrane blebbing, chromatin condensation and cell explosion (electronic supplementary material, figure S1B). Caspase-mediated apoptosis induction is similar to the effects of mitotic arrest caused by anti-microtubule drugs in HeLa cells. […] We conclude that these 12 compounds cause mitotic arrest followed by cell death through apoptotic activation.
Figure 2. Effect of compounds on mitotic progression in HeLa cell (a). Duration of mitosis was analysed by live imaging of HeLa cells stably expressing H2B-mcherry (red) and EGFP-a tubulin (green) treated in the presence of 0.5 µM (K1, L1, J1) or 2 µM (C16, E2, O12, M2, I15, J3, I2, A15, F15) compound for 24 h and the time in mitosis was measured in 200 cells. DMSO-treated cells are shown, which served as the vehicle control. Show mean as ‘+’. (b). The Cell fate after mitosis (normal division, abnormal division or cell death) was quantitatively assessed after the mitotic arrest observed in (a). (c) Dose-dependent change of phenotypes after mitotic arrest with K1, L1 and J1.
For live-cell imaging experiments, 200 000 cells were seeded onto glass-bottom culture dishes (MatTek P35GC-1.5-14-C). Cells were grown overnight before the addition of the compound, and the culture media was replaced with fresh media lacking phenol red to limit phototoxicity before imaging.
Live-cell imaging was performed in a LCV110 U VivaView FL incubator microscope (Olympus) equipped with an X-Cite-exacte illumination source (Excelitas Technologies) and Orca-R2 CCD camera (Hamamatsu Photonics). For screening, images were acquired with a 20 × objective every 15 min for 24–48 h in the differential interference contrast (DIC), m-cherry and GFP channels. For assessment of apoptosis, the cells were monitored every 15 min for 24 h. Individual cells were manually analysed using the CellCognition browser.

[1] = test system: BT549, CAL51 and MB-157 breast cancer cell lines; experiment: Viability dose-response in breast cancer cell lines; type: cell-based; details: Homo sapiens, 96 h; range over three breast cancer cell lines; 4 days of treatment
Description: as §1, §2, §3

[2] = target: T1, porcine brain tubulin heterodimer (Sus scrofa, UniProt P02550+P02554); experiment: In vitro tubulin polymerization assay; type: biochemical; details: IC50 of tubulin polymerization
T1 construct: highly purified porcine brain tubulin heterodimer; purchased Cytoskeleton T240 (kit BK011P); host or cells: porcine brain tissue
T1 sequence (P02554 whole entry): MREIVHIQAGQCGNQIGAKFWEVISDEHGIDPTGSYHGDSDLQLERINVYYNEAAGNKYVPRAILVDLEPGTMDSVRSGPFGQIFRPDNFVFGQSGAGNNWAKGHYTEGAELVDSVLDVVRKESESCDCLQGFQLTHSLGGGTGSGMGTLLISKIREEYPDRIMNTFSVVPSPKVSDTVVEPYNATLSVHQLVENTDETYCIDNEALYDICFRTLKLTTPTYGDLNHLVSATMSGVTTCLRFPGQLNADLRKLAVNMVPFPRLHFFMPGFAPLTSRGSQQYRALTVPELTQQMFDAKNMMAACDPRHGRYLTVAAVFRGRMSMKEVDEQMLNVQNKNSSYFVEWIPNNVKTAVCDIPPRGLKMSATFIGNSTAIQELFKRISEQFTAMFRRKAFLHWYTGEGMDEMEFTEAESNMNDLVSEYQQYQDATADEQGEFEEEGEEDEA
T1 sequence (P02550 whole entry): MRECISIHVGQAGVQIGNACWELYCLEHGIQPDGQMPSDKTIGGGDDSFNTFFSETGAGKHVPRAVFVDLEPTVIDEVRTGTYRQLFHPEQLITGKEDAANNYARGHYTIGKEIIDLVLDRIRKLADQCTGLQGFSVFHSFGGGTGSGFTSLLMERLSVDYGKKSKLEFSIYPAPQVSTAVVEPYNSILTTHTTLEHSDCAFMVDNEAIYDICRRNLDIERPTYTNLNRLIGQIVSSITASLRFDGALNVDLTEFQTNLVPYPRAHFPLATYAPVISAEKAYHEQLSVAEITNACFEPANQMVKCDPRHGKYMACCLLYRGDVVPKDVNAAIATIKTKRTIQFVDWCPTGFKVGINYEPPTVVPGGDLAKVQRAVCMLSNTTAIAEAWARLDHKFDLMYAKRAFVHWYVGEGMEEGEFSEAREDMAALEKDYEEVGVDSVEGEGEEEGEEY
Description: To determine whether the 12 compounds affected mitotic spindle organization by directly interfering with tubulin polymerization, we performed in vitro tubulin polymerization assays. […] Tubulin polymerization was monitored every 1 min by measuring fluorescence absorbance at 340 nm for 1 h.
Figure 3. […] Tubulin was incubated with 5 µM of the compounds and DMSO for 60 min at 37°C. The fluorescence increase was monitored every minute at 340 nm. […] (b). […] Nocodazole (NOC) was used as the control. (c). […] (d) The same experiment as (c) but carried out at a different time.
The Tubulin Polymerization HTS Assay Kit (Cytoskeleton, BK011P) was used according to the manufacturer's instructions. All components were added into a 96-well microtiter plate (Corning Costar, cat. no. 3686), then the tubulin reaction mixture was quickly added to the wells, and tubulin polymerization was initiated and monitored every 1 min at 37°C for 1 h by recording fluorescence of excitation wavelength at 340 nm and emission at 450 nm. The tubulin reaction mixture was composed of 80 mM PIPES (pH 6.9), and 1 mM MgCl2, 1 mM EGTA, 1 mM GTP and 2 mg ml^−1 of highly purified porcine brain tubulin heterodimer (Cytoskeleton, cat. no. T240).

[3] = test system: fission yeast mutant strains (nda2-KM52, nda3-KM311, cdc25-22, cut14-208, act1-48); experiment: Drug sensitivity of fission yeast mutants spotted on YE medium; type: cell-based, Schizosaccharomyces pombe; details: figure S3
Description: The Schizosaccharomyces pombe SAK933 strain (h90 ade6 leu1 ura4-D18 GFP-atb2≪kanr sid4-mcherry≪hygr caf5::bsdR pap1Δ pmd1Δ mfs1Δ bfr1Δ dnf2 Δ erg5::ura4+) [57] used for the phenotypic screening in this study was grown at 30°C in yeast extract (YE) medium containing adenine, leucine, uridine and histidine. A haploid wild-type strain 972 h^- and its derivative strains were used in the electronic supplementary material, figure S3: nda2-km52, nda3-km311 [58], cdc25-22 [59, 60], cdc14-208 [61] and act1-48 [62] spotted onto YE medium containing the same four supplements above and incubated for 3 days at 30°C.

[4] = target: T2, tubulin (colchicine-binding site) (Sus scrofa, UniProt P02550+P02554); experiment: Fluorescence-based colchicine displacement assay; details: for fluorescence of the colchicine-tubulin complex: 2 µM tubulin + 2 µM colchicine set 100%
T2 construct: purchased Cytoskeleton, Inc
T2 sequence (P02554 whole entry): as the sequence (P02554 whole entry) above
T2 sequence (P02550 whole entry): as the sequence (P02550 whole entry) above
Description: Figure 6. […] Each value represents the mean ± s.e.m. of three independent experiments.
Reaction mixtures were excited at 380 nm and the emission was measured at 438 nm. Values were exported as Excel files and graphs were generated in Prism V9 GraphPad.

In the case of `COc1cc(Br)cc2c1OC(c1ccc3c(c1)OCO3)C([N+](=O)[O-])=C2` (stereo not drawn) [L1], the IC50 (MCF-10A; Homo sapiens, 96 h, MCF-10A, 4 days of treatment) is reported as 9.6 µM, the “IC50 in MCF-10A relative to the three breast cancer cell lines” value (MCF-10A; ratio non-cancer / cancer lines) is reported as “more than threefold higher” and the cell fate (HeLa cells; 0.5 µM compound) is reported as “arrested cells initially in mitosis, followed by cell death”. The cell fate (HeLa cells; 2 µM compound) was “immediately induced cell death independent of the phase of the cell cycle”, the “phenotype after mitotic arrest” value (HeLa cells; 0.1 and 0.25 µM compound) was “abnormal multipolar, asymmetric cell divisions, generating 3–4 daughter cells” and the IC50 [1] was 2.4 to 3.1 µM. For the same molecule, the IC50 ([2]; figure 3c, 37°C, 1 h) was 0.47 µM, the IC50 ([2]; figure 3d, same experiment carried out at a different time) was 0.46 µM and the “drug sensitivity of cdc25-22, cut14-208 and act1-48 mutants” value [3] was “No such drug hypersensitivity”. The “fluorescence of the colchicine-tubulin complex” value ([4]; 5 µM L1) was 87%, the “fluorescence of the colchicine-tubulin complex” value ([4]; 10 µM L1) was 71% and the colchicine-tubulin interaction ([4]; 50 µM L1) was “abolished the interaction between colchicine and tubulin complex completely”.
